Experimental data taken from patent US20120058198A1, “METHODS FOR TREATING AND PREVENTING PNEUMONIA AND VENTILATOR-ASSOCIATED TRACHEOBRONCHITIS” (PULMATRIX, INC., priority 2009, published 2012).

Assays:
[1] = system: Serotype 3 Streptococcus pneumoniae; assay: Mouse S. pneumoniae infection model, nebulized calcium:sodium formulations 2 hours before infection; type: in vivo; conditions: ampicillin synergy study; nebulized 2 h before infection; ~0.72 mg Ca/kg, ampicillin ~3 mg/kg
Method: Unless otherwise stated, exposure times were 3 minutes in duration. […] CFU were enumerated the following day.

bacteria = assay: Pass through assay, calcium chloride dose dependence (bacterium not named); type: cell-based; conditions: amount delivered to mimetic, between the […] and […] solutions; from other analyses
Method: In these studies, the number of exposures via nebulization was different, making direct comparisons difficult. […] In this study, a single dose of each formulation was delivered to the apical surface of sodium alginate mimetic and bacteria were added immediately after exposure. […] In contrast, the 0.12M and 0.38M treatments had no effect.
All of the formulations tested above were formulated in isotonic saline. Thus, the inhibitory effects seen could be caused by the dual action of sodium and calcium ions in concert or alternatively, the effect could be driven entirely by calcium. To differentiate between these hypotheses, we tested additional calcium formulations based in water rather than saline.

Row | SMILES | reduction in lung bacterial titers relative to saline control [1] [fold] | critical concentration of calcium needed for the inhibition of bacteria (bacteria)
1 | CC1(C)S[C@@H]2[C@H](NC(=O)[C@H](N)c3ccccc3)C(=O)N2[C@H]1C(=O)O [ampicillin] | 33 | –
2 | [Ca+2].[Cl-].[Cl-] [calcium chloride] | – | 3-4 μg of calcium per cm^2
